Assay results reported in patent US9320271B2, “Microbial composition” (Rohm and Haas Company, priority 2011, dated 2016).
Values joined by “and” are separate entries in the source; they are usually repeats but may differ in a detail not shown here. Equal values may be shown once.

Tests used:
[1] = tested on: Escherichia coli (E. coli—ATCC #10536); assay: Automated assessment of efficacy in surfactant base (2.85% sodium cocoyl glycinate and 1.85% sodium lauroamphoacetate, pH 10.0), 15 seconds exposure; format: cell-based; settings: for MBC (minimum biocidal concentration): in 2.85% sodium cocoyl glycinate + 1.85% sodium lauroamphoacetate solution at pH 10, E. coli; for No. of replicates showing growth (out of 4) / Δ OD 450 nm = OD450 (time = 16 hours) − OD450 (time zero), Mean / Δ OD 590 nm OD590 (time = 16 hours) − OD590 (time zero), Mean: alone, model surfactant solution
Experimental: Test Methodology for Automated Assessment of Efficacy in Surfactant Base Microbiocidal Activity of Actives as Per the Invention in a Model Surfactant Medium Test Methodology for Automated Assessment of Efficacy in Surfactant Base In these examples, the efficacy of combinations of actives were tested in a surfactant cleansing formulation comprising 2.85% sodium cocoyl glycinate and 1.85% sodium lauroamphoacetate. This corresponds to a 50% in use dilution with water of a neat formulation containing 5.7% cocoyl glycinate and […] % sodium, lauroamphoacetate during hand washing. Solutions were prepared such that the concentrations of the surfactant components and test actives were 1.1× the final desired concentration in order to allow for dilution with the bacterial inoculum in the test. The solutions were manually adjusted to pH 10.0 by dropwise addition of sodium hydroxide solution, as measured with a pH meter at ambient temperature. The efficacy of the combinations of the present invention was determined against Escherichia coli (E. coli—ATCC #10536), at a concentration of approximately 1×10^8 bacteria per mL. Tests were conducted using standard microtiter plate assays using an automated liquid handling system. 270 μl of the surfactant test solution was pipetted into each well of the microtitre plate and 30 μl of the bacterial suspension was then added. Alter exactly 15 seconds of bacterial exposure, a 30 μl volume of bacterial cells was withdrawn and transferred to 270 μl of D/E quench solution. After 5 minutes in the D/E quench, the optical density (OD) was measured for each plate in turn at two specific wavelengths (450 nm and 590 nm). These provide a dual check of antimicrobial activity, as the OD450 reading is specific for the yellow colour of D/E quench when bacterial growth is observed, whereas OD590 is specific for the initial purple colour of the D/E quench which is retained if no bacterial growth is observed. After the time zero OD measurements, plates were then incubated at 37° C. overnight (16 hours) before repeating the OD measurements. Delta OD values were calculated by subtracting […]. Bacterial growth is observed as an increase in OD450 and a decrease in ΔOD590. To identify antibacterially efficacious systems (those preventing appreciable bacterial growth after incubation), the following threshold changes in OD readings have been adopted: if (1). OD450 increases by less than 0.2 absorbance unit on incubation and (2). OD590 decreases by less than 0.35 unit on incubation. Conversely, where OD450 increases by more than 0.2 AU and OD590 decreases by more than 0.35 unit after incubation, corresponding to a colour shift from purple to yellow, the test system allows bacterial growth and is not deemed efficacious. Four replicate measurements in the same plate have been made for each test system. The number of replicate wells showing either bacterial growth or no growth is also readily assessed by eye by following the colour change. Dose responses for individual components and binary mixtures of actives at a fixed concentration ratio were generated by sequential dilution of liquors with further surfactant solution to obtain a series of endpoints. […] In some selected cases, the combinations were also tested at the weight ratio 1:1.

[2] = tested on: Escherichia coli (E. coli—ATCC #10536); assay: Synergy test: high resolution MBC microtiter plate assay, phosphate buffer containing 35% dipropylene glycol, 15 seconds contact; format: cell-based; settings: E. coli 10536; for SI (Synergy Index): at Qa and Qb, less than one = synergy; for MBC of the component acting alone (QA / QB; Qa or Qb where the other component is 0): complete kill in 15 seconds
Description: The concentrations and ratios may also vary under different test conditions or with different test methods.
One measure of synergy is the industrially accepted method described by Kull, F. C.; Eisman, P. C.; Sylwestrowicz, H. D, and Mayer, R. L., in Applied Microbiology 9:538-541 (1961), using the ratio determined by the formula: […]=Synergy Index (“SI”) wherein; QA=concentration of compound A (first component) in percent, acting alone, which produced an end point (MBC of Compound A). Qa=concentration of compound A in percent, in the mixture, which produced an end point. QB=concentration of compound B (second component) in percent, acting alone, which, produced an end point (MBC of Compound B). Qb=concentration of compound B in percent, in the mixture, which produced an end point.
When the sum of Qa/QA and Qb/QB is greater than one, antagonism is indicated. […] The lower the SI, the greater is the synergy shown by that particular mixture. The minimum biocidal concentration (MBC) of a microbicide is the lowest concentration tested under a specific set of conditions that provides complete kill of the tested microorganisms.
Synergy tests were conducted using standard microliter plate assays with phosphate buffer containing 35% dipropylene glycol (DPG). In this method, a wide range of combinations of chemicals was tested by conducting high resolution MBC assays of Component (A) in the presence of various concentrations of Component (B). High resolution MBCs were determined by adding varying amounts of microbicide to one column of a microliter plate and doing subsequent […] dilutions using an automated liquid handling, system to obtain a series of closely spaced endpoints. The MBC plate was inoculated one column at a time with the test microorganism. An aliquot of the inoculated well was transferred at 15 seconds to a plate containing a neutralizing agent (D/E Neutralizing Broth), mixed and held for 5 minutes before being transferred to a growth plate containing trypticase soy broth (TSB). The TSB plate was incubated at 37° C. and read for the presence/absence of growth at 24 hours. The lowest level tested that provided complete kill (as evidenced by no growth in the microtitre plate) of the test organisms in 15 seconds is the minimum biocidal concentration (MBC).
The synergy of the combinations of the present invention was determined against a bacterium, Escherichia coli (E. coli—ATCC #10536), at a concentration of approximately 1×10^8 it bacteria per mL. This microorganism is representative of natural contaminants in many consumer and industrial applications.

| SMILES | MBC (minimum biocidal concentration) [1] [% w/v] | SI (Synergy Index) [2] | MBC of the component acting alone (QA / QB; Qa or Qb where the other component is 0) [2] | MBC of the component acting alone (QA / QB; Qa or Qb where the other component is 0) ([2]; listed as 2-(4-methylcylohex-3-enyl)propan-1-ol) [weight %] | No. of replicates showing growth (out of 4) ([1]; 0.1% w/v) | Δ OD 450 nm = OD450 (time = 16 hours) − OD450 (time zero), Mean ([1]; 0.1% w/v) | Δ OD 590 nm OD590 (time = 16 hours) − OD590 (time zero), Mean ([1]; 0.1% w/v) | No. of replicates showing growth (out of 4) ([1]; 0.2% w/v) | Δ OD 450 nm = OD450 (time = 16 hours) − OD450 (time zero), Mean ([1]; 0.2% w/v) | Δ OD 590 nm OD590 (time = 16 hours) − OD590 (time zero), Mean ([1]; 0.2% w/v) | No. of replicates showing growth (out of 4) ([1]; […] w/v) | Δ OD 450 nm = OD450 (time = 16 hours) − OD450 (time zero), Mean ([1]; […] w/v) | Δ OD 590 nm OD590 (time = 16 hours) − OD590 (time zero), Mean ([1]; […] w/v) |
| --- | --- | --- | --- | --- | --- | --- | --- | --- | --- | --- | --- | --- | --- |
| CC1=CC(C)C(CO)C(C)C1 (stereo not shown) [2,4,6-trimethyl-3-cyclohexene-1-methanol] | 0.4 | 1.00 | 0.6 weight % and 1 weight % and 0.8 weight % and 0.3 weight % | – | – | – | – | – | – | – | – | – | – |
| CC1=CCC(C(C)CO)CC1 (stereo not shown) [2-(4-methylcyclohex-3-enyl)propan-1-ol] | – | 1.00 | 0.3 weight % and 0.25 weight % | 0.25 | – | – | – | – | – | – | – | – | – |
| Oc1ccccc1C1CCCC1 [2-cyclopentylphenol] | >0.2 | 1.00 | 0.3 weight % and 0.5 weight % | – | 4 | −0.57 | 0.56 | 4 | −0.52 | 0.61 | 4 | −0.56 | 0.54 |
| Oc1ccccc1Cc1ccccc1 [2-hydroxydiphenylmethane] | >0.2 | 1.00 | 0.8 weight % and 0.5 weight % and 0.6 weight % | – | 4 | −0.51 | 0.62 | 4 | −0.51 | 0.63 | 4 | −0.49 | 0.64 |
| Cc1cc(O)c(C(C)C)cc1Cl [4-chloro-2-isopropyl-5-methylphenol, reference compound] | >0.2 | – | – | – | – | – | – | – | – | – | – | – | – |
| Cc1cc(O)cc(C)c1Cl [4-chloro-3,5-dimethylphenol] | >0.2 | 1.00 | 0.6 weight % and 1.0 weight % and 0.5 weight % | – | 4 | −0.49 | 0.63 | 4 | −0.50 | 0.62 | 4 | −0.47 | 0.63 |
